One assay concerns the target human CB1 (Homo sapiens, UniProt P21554). As to the kind of experiment: Cyclic AMP assay (HTRF), CHO cells expressing human CB1. The class given is cell-based. How it is done:
(§1) Chinese Hamster Ovary cells (CHO) expressing human CB1 or human CB2 (3.3×10^5 cells/ml) were preincubated for 15 min at room temperature with tested agonist and 3-isobutyl-1-methylxanthine (IBMX; 200 μM) in phosphate buffered saline containing 1 mg/ml BSA (assay buffer) followed by 30 min incubation with forskolin in a total volume of 10 μl. The optimal forskolin concentration for each cell line was established in a separate experiment and adjusted to stimulate 70% of maximal cAMP response. cAMP content was measured using an HTRF assay (CisBio) according to the manufacturer's two step protocol.

The next assay concerns the target human CB2 (Homo sapiens, UniProt P34972). The experiment in a line: Cyclic AMP assay (HTRF), CHO cells expressing human CB2. Format: cell-based. On the procedure:
as §1

Where [1] appears, read: IP of tested agonist, CHO cells expressing human CB1, forskolin-stimulated cAMP, HTRF, read-out: CB1 (HTRF).
[2] abbreviates: IP of tested agonist, CHO cells expressing human CB2, forskolin-stimulated cAMP, HTRF, read-out: CB2 (HTRF).

Like-named read-outs stand apart in the source and are kept apart here. Some results are limits rather than exact numbers.

human CB1, sequence (P21554 whole entry): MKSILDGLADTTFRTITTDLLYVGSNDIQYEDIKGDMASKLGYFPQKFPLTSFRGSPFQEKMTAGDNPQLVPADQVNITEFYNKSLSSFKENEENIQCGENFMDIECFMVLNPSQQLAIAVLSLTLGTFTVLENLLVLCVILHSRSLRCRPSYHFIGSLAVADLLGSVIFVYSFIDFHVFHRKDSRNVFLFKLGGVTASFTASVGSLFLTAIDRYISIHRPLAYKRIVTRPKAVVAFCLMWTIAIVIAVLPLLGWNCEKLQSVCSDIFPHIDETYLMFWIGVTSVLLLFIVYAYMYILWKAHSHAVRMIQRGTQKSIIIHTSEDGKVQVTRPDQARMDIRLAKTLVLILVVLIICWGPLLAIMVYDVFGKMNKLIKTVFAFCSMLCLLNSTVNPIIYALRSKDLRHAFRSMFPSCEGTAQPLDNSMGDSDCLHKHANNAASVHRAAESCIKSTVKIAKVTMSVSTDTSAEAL
human CB2, sequence (P34972 whole entry): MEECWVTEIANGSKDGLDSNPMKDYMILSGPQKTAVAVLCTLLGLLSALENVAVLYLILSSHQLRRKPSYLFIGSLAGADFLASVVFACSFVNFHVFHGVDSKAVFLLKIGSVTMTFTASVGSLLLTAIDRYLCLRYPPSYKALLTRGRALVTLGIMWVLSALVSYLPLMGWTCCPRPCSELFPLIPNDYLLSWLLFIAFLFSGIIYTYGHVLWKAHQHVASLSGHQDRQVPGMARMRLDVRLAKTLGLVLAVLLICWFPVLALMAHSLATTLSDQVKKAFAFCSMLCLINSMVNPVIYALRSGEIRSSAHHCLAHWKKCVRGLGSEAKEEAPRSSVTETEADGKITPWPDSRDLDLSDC

Turning to `CCCCOc1ncccc1-c1nc(-c2ccc(Cl)cc2)no1` [Example I-3], the EC50 on human CB1 was over 17000 nM; on human CB2 it was 85 nM.

As for `CCCCOc1ncccc1-c1nc(-c2cccc(Cl)c2Cl)no1` [Example I-4], the results for the EC50 on human CB1 and on human CB2 were 309 nM and 3 nM, respectively.

Consider `CCCCOc1ncccc1-c1nc(-c2c(Cl)cccc2Cl)no1` [Example I-5], for which the EC50 at human CB1 came out at 114 nM; on human CB2, 4 nM.

For `CS(=O)(=O)C1CCN(c2ncccc2-c2cc(-c3cccc(F)c3)n[nH]2)CC1` [Example V-4], the EC50 on human CB1 (setting [1]) worked out at 8750 nM; on human CB2 (setting [2]), 68 nM.

Take `NC(=O)C1CCN(c2ncccc2-c2cc(-c3cccc(F)c3)n[nH]2)CC1` [Example V-5]: the EC50 on human CB1 (setting [1]) is over 17000 nM; on human CB2 (setting [2]), 717 nM.

On to `COCCOc1ncccc1-c1nc(-c2cccc(Cl)c2)no1` [II-2], for which the EC50 at human CB1 (setting [1]) is over 17000 nM; at human CB2 (setting [2]), 272 nM.

In the case of `CC(C)(C)COc1ncccc1-c1nc(-c2cccc(Cl)c2)no1` [II-5], the EC50 on human CB1 (setting [1]) was over 17000 nM; on human CB2 (setting [2]), 508 nM.

For `CCCCOc1ncccc1-c1nc(-c2ccccc2)c[nH]1` [III-2], the EC50 was over 17000 nM on human CB1 (setting [1]) and 900 nM at human CB2 (setting [2]).

On to `CCCCOc1ncccc1-c1nc(-c2ccc(C(F)(F)F)cc2)c[nH]1` [III-3], for which the results for the EC50 at human CB1 (setting [1]) and at human CB2 (setting [2]) were over 17000 nM and 109 nM, respectively.

Consider `CCCCOc1ncccc1-c1nc2ccccc2[nH]1` [IV-2], for which the EC50 is over 17000 nM at human CB1 (setting [1]) and 110 nM at human CB2 (setting [2]).

`N#Cc1ccc(-c2ncccc2-c2nc3cc(Cl)c(Cl)cc3[nH]2)cc1` [IV-5]: the EC50 at human CB1 (setting [1]) is over 17000 nM; at human CB2 (setting [2]), 258 nM.
